The text below walks through data of US20220193076A1, “METHODS OF TREATING BREAST CANCER WITH TUCATINIB” (Seagen Inc., priority 2019, published 2022).

The target of one data set is T1, CYP2C8 (Homo sapiens, UniProt P10632).
T1 sequence (P10632 1-490): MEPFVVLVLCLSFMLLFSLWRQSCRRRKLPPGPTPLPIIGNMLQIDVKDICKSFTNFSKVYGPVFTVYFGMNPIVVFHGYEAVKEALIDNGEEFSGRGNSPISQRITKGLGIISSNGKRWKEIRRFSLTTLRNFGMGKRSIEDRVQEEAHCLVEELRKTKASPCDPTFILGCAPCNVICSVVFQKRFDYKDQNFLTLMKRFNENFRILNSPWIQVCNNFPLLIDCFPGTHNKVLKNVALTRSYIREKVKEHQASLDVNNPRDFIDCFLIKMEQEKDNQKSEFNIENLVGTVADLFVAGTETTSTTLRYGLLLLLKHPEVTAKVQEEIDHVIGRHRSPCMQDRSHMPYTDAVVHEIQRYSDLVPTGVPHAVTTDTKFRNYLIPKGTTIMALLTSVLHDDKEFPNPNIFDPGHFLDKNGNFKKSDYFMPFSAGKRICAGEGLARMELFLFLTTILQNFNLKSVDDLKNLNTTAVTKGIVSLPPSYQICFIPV
The data set is described as follows: Example 2 Part D: effect of tucatinib on PK of substrate probe repaglinide. It counts as in vivo. More on the design: endogenous in cells; host or cells: healthy human subjects, in vivo. As to conditions: steady-state tucatinib 300 mg BID, probe repaglinide. The method, then: A Phase 1, open-label, fixed-sequence, 5-part, drug-drug interaction study of tucatinib was conducted to evaluate the effects of CYP3A4 and CYP2C8 inhibition and induction on the pharmacokinetics of tucatinib and to evaluate the effects of tucatinib on the pharmacokinetics of substrates of CYP3A4, CYP2C8, CYP2C9, and P-glycoprotein in healthy male and female subjects.
Part B evaluates the effect of rifampin, a strong inducer of CYP3A4 and CYP2C8, on the PK of tucatinib. […] Part E evaluates the effect of tucatinib on the PK of a substrate probe of the transporter P-gp (digoxin). […] For Parts A, B, and C, tucatinib is given as a single oral dose because evaluating plasma exposures after a single dose of tucatinib is expected to provide an appropriate assessment of the impact of the probe drugs on tucatinib PK. In Parts D and E, tucatinib is given as a multiple-dosing regimen in order to examine its effects on probe drugs at steady state, at which maximal inhibition of CYP2C8, CYP2C9, CYP3A4, and P-gp by tucatinib should be achieved.
Secondary objectives of the study included: (1) assessing the safety and tolerability of tucatinib when administered alone and when co-administered with substrate probes of CYP2C8, CYP2C9, and CYP3A4; and (2) assessing the single-dose PK of tucatinib and assessing the multiple-dose, steady-state PK of tucatinib alone and in the presence of substrate probes of CYP2C8, CYP2C9, and CYP3A4 in healthy subjects.
They were discharged on Day 14 after completion of the in-patient assessments.
On Day 1, each subject received a single oral dose of 0.5 mg of repaglinide. […] From Day 4 to Day 13, each subject received oral doses of 300 mg of tucatinib, twice daily (BID). On Day 11, each subject received a single oral dose of repaglinide. […] Tucatinib was provided as 150-mg tablets (2 tablets for the 300-mg dose), repaglinide was provided as 0.5-mg tablets, olbutamide was provided as 500-mg tablets, and midazolam was provided as a syrup (2 mg/mL; 1 mL syrup for the 2-mg dose). Tucatinib, repaglinide, olbutamide and midazolam were administered before meals preceded by an at least 8-hour overnight fast.
Other noncompartmental PK parameters may be reported. Additionally, blood samples for determination of plasma concentrations of tucatinib and ONT-993 were collected at the time points indicated in FIG. 8. […] A single genotyping blood sample was collected to assess possible effect of CYP polymorphisms or other genetic polymorphisms on the magnitude of drug interactions of tucatinib with probe drugs and substrates.

The target in data set [1] is T2, breast cancer resistance protein (BCRP) (Homo sapiens, UniProt Q9UNQ0).
T2 sequence (Q9UNQ0 1-655): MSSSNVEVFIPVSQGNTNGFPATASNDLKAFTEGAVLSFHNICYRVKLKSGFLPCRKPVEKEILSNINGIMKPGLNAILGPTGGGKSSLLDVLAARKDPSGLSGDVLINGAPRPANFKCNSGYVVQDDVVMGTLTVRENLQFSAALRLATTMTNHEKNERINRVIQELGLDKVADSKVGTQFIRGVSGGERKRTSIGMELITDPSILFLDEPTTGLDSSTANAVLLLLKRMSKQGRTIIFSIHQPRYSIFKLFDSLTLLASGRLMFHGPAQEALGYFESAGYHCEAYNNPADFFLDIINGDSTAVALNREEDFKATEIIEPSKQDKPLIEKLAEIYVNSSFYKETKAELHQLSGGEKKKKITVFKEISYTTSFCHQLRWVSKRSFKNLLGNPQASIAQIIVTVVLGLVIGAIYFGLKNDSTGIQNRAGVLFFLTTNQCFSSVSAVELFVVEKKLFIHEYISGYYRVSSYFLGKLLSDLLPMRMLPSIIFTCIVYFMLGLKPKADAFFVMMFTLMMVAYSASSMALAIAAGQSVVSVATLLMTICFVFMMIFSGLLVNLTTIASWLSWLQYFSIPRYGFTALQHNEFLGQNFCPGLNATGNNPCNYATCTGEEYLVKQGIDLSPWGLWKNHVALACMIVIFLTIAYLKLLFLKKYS
The data set is described as follows: In vitro inhibition of BCRP activity. The format is in vitro ADME.

Data set [2] concerns the target T3, organic cation transporter (OCT)2 (Homo sapiens, UniProt O15244).
T3 sequence (O15244 1-555): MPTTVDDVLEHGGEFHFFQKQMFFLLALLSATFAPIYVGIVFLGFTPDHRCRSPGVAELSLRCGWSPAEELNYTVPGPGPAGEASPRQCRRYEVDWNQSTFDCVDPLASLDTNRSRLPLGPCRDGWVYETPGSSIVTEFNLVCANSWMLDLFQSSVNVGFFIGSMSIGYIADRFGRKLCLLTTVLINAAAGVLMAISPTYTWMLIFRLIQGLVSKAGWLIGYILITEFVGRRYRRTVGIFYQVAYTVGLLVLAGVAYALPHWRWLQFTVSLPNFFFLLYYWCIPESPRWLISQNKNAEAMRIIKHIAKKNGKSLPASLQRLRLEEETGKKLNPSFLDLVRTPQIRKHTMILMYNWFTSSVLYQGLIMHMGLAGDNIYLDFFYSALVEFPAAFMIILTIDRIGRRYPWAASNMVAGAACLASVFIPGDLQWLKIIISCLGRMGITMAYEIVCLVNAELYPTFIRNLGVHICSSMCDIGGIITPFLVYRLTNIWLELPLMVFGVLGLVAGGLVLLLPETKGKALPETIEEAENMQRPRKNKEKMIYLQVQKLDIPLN
The data set is described as follows: In vitro inhibition of OCT2 activity. It counts as in vitro ADME. Conditions: read-out: 50% inhibitory concentration (IC50), OCT2.

Consider `Cc1cc(Nc2ncnc3ccc(NC4=NC(C)(C)CO4)cc23)ccc1Oc1ccn2ncnc2c1` [tucatinib], for which the “Inhibition of CYP2C8 in vivo” value at CYP2C8 is reported as “weak inhibitor”. The IC50 in data set [1] stood at 8.98 µM; in data set [2] it was 14.7 µM.
